In patent US8329904B2, “Azacyclic derivatives” (Hoffmann-La Roche Inc., priority 2009, dated 2012):
pIC50: −log10 of the molar value.

biological target: T1, human HSL (Homo sapiens, UniProt Q05469); test: Human Hormone-Sensitive Lipase (HSL) Enzyme Inhibition Assay; format: biochemical; details: colorimetric assay, 2,3-dimercapto-1-propanol tributyrate (DMPT) substrate, 37° C. for 20 minutes, absorbance at 405 nm; read-out: HSL hum IC50
T1 construct: overlapping PCR to generate a full length human HSL ORF with a 3′-His6 tag; His6 (C); made in house; host or cells: High 5 insect cells (baculovirus, pFast-BAC)
T1 sequence (Q05469 1-1076): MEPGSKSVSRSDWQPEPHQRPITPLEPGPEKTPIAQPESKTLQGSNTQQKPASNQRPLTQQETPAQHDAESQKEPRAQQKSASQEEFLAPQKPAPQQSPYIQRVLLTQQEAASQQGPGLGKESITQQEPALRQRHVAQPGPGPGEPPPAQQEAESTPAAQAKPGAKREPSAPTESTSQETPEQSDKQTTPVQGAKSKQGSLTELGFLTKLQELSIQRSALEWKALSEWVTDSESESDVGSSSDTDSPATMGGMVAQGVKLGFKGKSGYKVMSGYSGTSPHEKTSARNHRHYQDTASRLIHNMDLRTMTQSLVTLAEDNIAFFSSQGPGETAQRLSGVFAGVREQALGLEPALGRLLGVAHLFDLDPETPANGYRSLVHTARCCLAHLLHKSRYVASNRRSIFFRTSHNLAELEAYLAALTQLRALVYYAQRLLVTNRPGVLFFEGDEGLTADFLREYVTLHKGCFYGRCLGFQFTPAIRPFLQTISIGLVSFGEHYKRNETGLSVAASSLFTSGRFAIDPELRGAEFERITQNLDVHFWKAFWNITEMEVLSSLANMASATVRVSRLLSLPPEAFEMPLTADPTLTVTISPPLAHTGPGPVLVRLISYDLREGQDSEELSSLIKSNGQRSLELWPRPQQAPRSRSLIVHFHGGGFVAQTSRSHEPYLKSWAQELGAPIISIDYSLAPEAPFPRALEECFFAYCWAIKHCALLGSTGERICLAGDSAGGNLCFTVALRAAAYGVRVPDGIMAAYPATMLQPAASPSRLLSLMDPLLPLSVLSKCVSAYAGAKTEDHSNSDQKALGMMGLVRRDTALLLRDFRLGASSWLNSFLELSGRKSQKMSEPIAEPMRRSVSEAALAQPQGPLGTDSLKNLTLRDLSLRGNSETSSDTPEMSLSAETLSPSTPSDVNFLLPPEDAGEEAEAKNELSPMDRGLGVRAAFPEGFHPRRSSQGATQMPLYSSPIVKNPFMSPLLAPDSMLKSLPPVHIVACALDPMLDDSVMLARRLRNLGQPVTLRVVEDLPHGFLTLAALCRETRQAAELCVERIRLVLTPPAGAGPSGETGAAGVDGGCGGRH
Procedure: Production of Human Full Length Hormone Sensitive Lipase-His^6
1) Cloning: cDNA was prepared from commercial human brain polyA-+ RNA and used as a template in overlapping PCR to generate a full length human HSL ORF with a 3′-His6 tag. This full length insert was cloned into the pFast-BAC vector and the DNA-sequence of several single clones was verified. DNA from a correct full length clone with the 3′His6 tag was used to transform the E. coli strain DH10BAC. Resulting bacmid DNA was used to generate a titered baculovirus stock for protein generation.
Cells were thawed. […] was done at 3×30 sec., Lubrol PX was added to 0.2% final concentration followed by stirring for 15 min. at 4° C. and centrifugation at 25 k×g, 60 min., 4° C. […] Supernatant was removed, the resin washed in the centrifuge vessel using 5 volumes of Base Buffer containing 0.2% Lubrol PX. Centrifugation was done again, then the supernatant discarded. The resin wass poured onto a 0.8 μm membrane in a disposable filter unit (Nalge 450-0080), and washed with 5 volumes of Base Buffer containing 0.2% Lubrol PX. It was then washed with 30 volumes of Base Buffer containing 60 mM imidazole pH 7.5 at 4° C. The protein was eluated with 5 volumes of 25 mM Tris-Cl, 300 mM NaCl, 200 mM imidazole, 10 mM 2-mercaptoethanol, pH 7.5 at 4° C. by tumbling resin with buffer end-over-end, 30 min., 4° C. The resin was captured on a 0.2 μm membrane disposable filter unit (Millipore SCGP U02 RE) and the eluate collected in the reservoir. The eluate was concentrated using a 30 k MWCO centrifugal filter device (Sartorius Vivascience Vivacell 100, VC1022), to 20 ml. It was then dialyzed overnight at 4° C., two times against 2 L of 10% glycerol, 25 mM Tris-Cl, 300 mM NaCl, 0.2 mM EDTA, 0.2 mM DTT, pH 7.5 at 4° C. The protein was filtered using a 0.22 μm disposable filter unit (Millipore SCGP00525). The protein concentration was calculated from absorbance at 280 nm, using 280=0.67 cm-1 mg-1. […] The protein was stored at −80° C.
Human Hormone-Sensitive Lipase (HSL) Enzyme Inhibition Assay:
HSL enzyme activity was measured by a colorimetric assay using 2,3-dimercapto-1-propanol tributyrate (Aldrich, St. Louis, Mo.) as a substrate. Typically, 1.5 mM 2,3-dimercapto-1-propanol tributyrate (DMPT) in 100 mM MOPS, pH 7.2, 0.2 mg/ml fatty acid-free BSA was prepared by sonication at 4° C. to homogenous suspension. Test compounds (2 mM stock in DMSO) were diluted 3 fold in series in DMSO. Compound solutions were diluted 24 fold in 1.5 mM DMPT containing solution and 18 ul per well was added to 384-well microplates (Corning Costar). Twelve microliters per well of human HSL (15 ug/ml) was added and the reaction mixture was incubated at 37° C. for 20 minutes. Six microliters of 12 mM dithio-bis-(2-nitrobenzoic acid) (DTNB) in DMSO plus 1.2% SDS and 0.6% Triton X-100 were added and the mixture was incubated at room temperature for 15 minutes. Product production was monitored by reading absorbance at 405 nm on an Envision Reader (PerkinElmer Life and Analytical Sciences, Shelton, Conn.).

Row | pIC50 | Compound
1 | 7.40 | CC(C)(C)CS(=O)(=O)N1CCC2(CCN(c3ccc(OC(F)(F)F)cc3)C2=O)CC1 [Example 19, 8-(2,2-Dimethyl-propane-1-sulfonyl)-2-(4-trifluoromethoxy-phenyl)-2,8-diaza-spiro[4.5]decan-1-one]
2 | 6.62 | CCc1ccc(N2CCC3(CCN(C(=O)CC(C)(C)C)CC3)C2=O)cc1 [Example 20, 8-(3,3-Dimethyl-butyryl)-2-(4-ethyl-phenyl)-2,8-diaza-spiro[4.5]decan-1-one]
3 | 6.57 | CCc1ccc(N2CCC3(CCN(S(=O)(=O)N4CCOCC4)CC3)C2=O)cc1 [Example 21, 2-(4-Ethyl-phenyl)-8-(morpholine-4-sulfonyl)-2,8-diaza-spiro[4.5]decan-1-one]
4 | 6.80 | CC(C)CS(=O)(=O)N1CCC2(CCN(c3ccc(OC(C)C)cc3)C2=O)CC1 [Example 23, 2-(4-Isopropoxy-phenyl)-8-(2-methyl-propane-1-sulfonyl)-2,8-diaza-spiro[4.5]decan-1-one]
5 | 7.00 | CCc1ccc(N2CCC3(CCN(S(=O)(=O)CC(C)C)CC3)C2=O)cc1 [Example 24, 2-(4-Ethyl-phenyl)-8-(2-methyl-propane-1-sulfonyl)-2,8-diaza-spiro[4.5]decan-1-one]
6 | 7.22 | O=C1N(c2ccc(OCC(F)(F)F)cc2)CCC12CCN(S(=O)(=O)c1ccccc1)CC2 [Example 26, 8-Benzenesulfonyl-2-[4-(2,2,2-trifluoro-ethoxy)-phenyl]-2,8-diaza-spiro[4.5]decan-1-one]
7 | 7.40 | O=C1N(c2ccc(OC(F)(F)F)cc2)CCC12CCN(S(=O)(=O)c1cccs1)CC2 [Example 28, 8-(Thiophene-2-sulfonyl)-2-(4-trifluoromethoxy-phenyl)-2,8-diaza-spiro[4.5]decan-1-one]
8 | 7.30 | CCc1ccc(N2CCC3(CCN(S(=O)(=O)c4cccs4)CC3)C2=O)cc1 [Example 29, 2-(4-Ethyl-phenyl)-8-(thiophene-2-sulfonyl)-2,8-diaza-spiro[4.5]decan-1-one]
9 | 6.44 | CCc1ccc(N2CCC3(CCN(S(=O)(=O)CCC(F)(F)F)CC3)C2=O)cc1 [Example 30, 2-(4-Ethyl-phenyl)-8-(3,3,3-trifluoro-propane-1-sulfonyl)-2,8-diaza-spiro[4.5]decan-1-one]
10 | 7.10 | CCCc1ccc(N2CCC3(CCN(C(=O)CC(C)(C)C)CC3)C2=O)cc1 [Example 31, 8-(3,3-Dimethyl-butyryl)-2-(4-propyl-phenyl)-2,8-diaza-spiro[4.5]decan-1-one]
11 | 7.10 | CCc1ccc(N2CCC3(CCN(S(=O)(=O)CC(C)(C)C)CC3)C2=O)cc1 [Example 32, 8-(2,2-Dimethyl-propane-1-sulfonyl)-2-(4-ethyl-phenyl)-2,8-diaza-spiro[4.5]decan-1-one]
12 | 7.52 | O=C1N(c2ccc(C3CC3)cc2)CCC12CCN(S(=O)(=O)c1ccccc1Cl)CC2 [Example 33, 8-(2-Chloro-benzenesulfonyl)-2-(4-cyclopropyl-phenyl)-2,8-diaza-spiro[4.5]decan-1-one]
13 | 7.00 | CSc1ccc(N2CCC3(CCN(S(=O)(=O)c4ccccc4Cl)CC3)C2=O)cc1 [Example 34, 8-(2-Chloro-benzenesulfonyl)-2-(4-methylsulfanyl-phenyl)-2,8-diaza-spiro[4.5]decan-1-one]
14 | 6.77 | CC(C)(C)CC(=O)N1CCC2(CC1)CCN(c1ccc(C3CC3)cc1)C2=O [Example 35, 2-(4-Cyclopropyl-phenyl)-8-(3,3-dimethyl-butyryl)-2,8-diaza-spiro[4.5]decan-1-one]
15 | 7.30 | O=C1N(c2ccc(C3CC3)cc2)CCC12CCN(S(=O)(=O)c1cccs1)CC2 [Example 36, 2-(4-Cyclopropyl-phenyl)-8-(thiophene-2-sulfonyl)-2,8-diaza-spiro[4.5]decan-1-one]
16 | 6.66 | O=C(CC1CCCC1)N1CCC2(CC1)CCN(c1ccc(C3CC3)cc1)C2=O [Example 37, 8-(2-Cyclopentyl-acetyl)-2-(4-cyclopropyl-phenyl)-2,8-diaza-spiro[4.5]decan-1-one]
17 | 7.22 | O=C1N(c2ccc(C3CC3)cc2)CCC12CCN(S(=O)(=O)Cc1ccccc1)CC2 [Example 38, 2-(4-Cyclopropyl-phenyl)-8-phenylmethanesulfonyl-2,8-diaza-spiro[4.5]decan-1-one]
18 | 6.70 | CCCS(=O)(=O)N1CCC2(CCN(c3ccc(C4CC4)cc3)C2=O)CC1 [Example 39, 2-(4-Cyclopropyl-phenyl)-8-(propane-1-sulfonyl)-2,8-diaza-spiro[4.5]decan-1-one]
19 | 7.10 | CC(C)(C)CC(=O)N1CCC2(CC1)CCN(c1ccc(CC(F)(F)F)cc1)C2=O [Example 40, 8-(3,3-Dimethyl-butyryl)-2-[4-(2,2,2-trifluoro-ethyl)-phenyl]-2,8-diaza-spiro[4.5]decan-1-one]
20 | 7.22 | CCc1ccc(N2CCC3(CCN(S(=O)(=O)c4ccc(C)s4)CC3)C2=O)cc1 [Example 41, 2-(4-Ethyl-phenyl)-8-(5-methyl-thiophene-2-sulfonyl)-2,8-diaza-spiro[4.5]decan-1-one]
21 | 7.40 | Cc1ccc(S(=O)(=O)N2CCC3(CCN(c4ccc(OC(F)(F)F)cc4)C3=O)CC2)s1 [Example 42, 8-(5-Methyl-thiophene-2-sulfonyl)-2-(4-trifluoromethoxy-phenyl)-2,8-diaza-spiro[4.5]decan-1-one]
22 | 7.40 | CCC(C)c1ccc(N2CCC3(CCN(S(=O)(=O)c4cccs4)CC3)C2=O)cc1 (stereo not drawn) [Example 43, 2-(4-sec-Butyl-phenyl)-8-(thiophene-2-sulfonyl)-2,8-diaza-spiro[4.5]decan-1-one]
23 | 7.00 | CCC(C)c1ccc(N2CCC3(CCN(S(=O)(=O)N4CCOCC4)CC3)C2=O)cc1 (stereo not drawn) [Example 44, 2-(4-sec-Butyl-phenyl)-8-(morpholine-4-sulfonyl)-2,8-diaza-spiro[4.5]decan-1-one]
24 | 7.22 | CCC(C)c1ccc(N2CCC3(CCN(S(=O)(=O)c4ccc(C)s4)CC3)C2=O)cc1 (stereo not drawn) [Example 45, 2-(4-sec-Butyl-phenyl)-8-(5-methyl-thiophene-2-sulfonyl)-2,8-diaza-spiro[4.5]decan-1-one]
